This passage reports Dmax and DC50 results from US20260092061A1, “COMPOUNDS FOR TARGETED PROTEIN DEGRADATION” (Amphista Therapeutics Limited, priority 2022, published 2026).

What all share (type): cell-based
Assay [1] has as its target T1, BRD9 (Homo sapiens, UniProt Q9H8M2).
T1 sequence (Q9H8M2 1-597): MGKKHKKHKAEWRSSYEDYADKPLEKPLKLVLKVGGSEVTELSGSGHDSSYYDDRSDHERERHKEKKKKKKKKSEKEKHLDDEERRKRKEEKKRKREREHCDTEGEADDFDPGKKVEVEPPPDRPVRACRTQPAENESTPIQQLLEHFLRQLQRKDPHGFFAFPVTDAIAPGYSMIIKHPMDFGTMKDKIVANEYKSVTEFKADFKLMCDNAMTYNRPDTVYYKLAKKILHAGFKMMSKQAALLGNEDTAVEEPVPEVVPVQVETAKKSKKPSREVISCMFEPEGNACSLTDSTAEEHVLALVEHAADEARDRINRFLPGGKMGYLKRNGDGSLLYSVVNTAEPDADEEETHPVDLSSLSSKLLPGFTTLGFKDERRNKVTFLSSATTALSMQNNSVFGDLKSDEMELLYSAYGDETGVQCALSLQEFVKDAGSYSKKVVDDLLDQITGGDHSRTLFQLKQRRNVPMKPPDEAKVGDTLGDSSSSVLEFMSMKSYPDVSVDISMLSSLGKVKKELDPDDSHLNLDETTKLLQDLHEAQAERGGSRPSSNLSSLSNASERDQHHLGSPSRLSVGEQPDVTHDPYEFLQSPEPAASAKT
In words: BRD9 degradation, HiBiT-BRD9 KI HEK293 (LgBiT) cells, NanoGlo Lytic Endpoint assay (Assay Protocol 1). Conditions: for Dmax / Dmax at 1 µM: HEK293. In a few lines: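 HiBiT-tagged BRD9 knock-in HEK293 (LgBiT) cells exposed to compounds for 6 h at 37 °C, 5% CO2. Residual BRD9 measured by HiBiT lytic luminescence. % BRD9 remaining normalised to DMSO-treated cells (high) and no-cell wells (low).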

Assay [2] addresses T2, BRD4 (Homo sapiens, UniProt O60885).
T2 construct: HiBiT-BRD4 HEK293 CRISPR CPM (Promega CS302312); host or cells: HEK293, CRISPR-edited (HiBiT at the BRD4 locus)
In words: BRD4 degradation, HiBiT-BRD4 HEK293 CRISPR CPM cells, NanoGlo Lytic Endpoint assay (Assay Protocol 1). Conditions: for Dmax: HEK293, Table 5; for DC50: Table 5. As to the method:
HiBiT-BRD9 KI HEK293 (LgBiT) Cells (Promega CS3023412) were seeded at 8000 cells per well (38 μL) in sterile white bottom 384 well plates (Invitrogen 164610 or Greiner 781080) and incubated overnight at 37° C. with 5% CO2. The next day, compounds were prepared at 1000× final concentration in DMSO and diluted 1:100 in media (DMEM PAN Biotech P04-03550+10% FBS ATCC 302025). 4 μL compound was added to each well of the cell plate and incubated for 6 h at 37° C. with 5% CO2 BRD9 expression was quantified using the NanoGlo Lytic Endpoint assay (Promega N3050). The lytic buffer was equilibrated to room temperature for 10-15 min before lytic reagent was prepared by adding substrate (1:50) and LgBit protein (1:100) in lytic buffer. 40 μL lytic reagent mix was added to each well of the cel plate and plates were centrifuged briefly at ˜50g. Plates were incubated with shaking (350 RPM) for 12-24 min before reading using the LUM plus module of a BMG Pherastar FSX. Data was analysed using Dotmatics software and % BRD9 remaining was calculated by normalisation to average data from high and low control wells (DMSO treated cels and no cells respectively).
[…] was determined in line with the procedure as outlined above for BRD9, HiBiT-BRD4 HEK293 CRISPR CPM (Promega CS302312) were seeded at 8000 CPW (36 uL) in sterile white bottom 384 well plates (Invitrogen 164610 or Greiner 781080) and incubated overnight at 37° C. with 5% CO2.
(HiBiT is a short tag that completes a luciferase, so light tracks the accessible tagged protein.)

Assay [3] addresses T2, BRD4. The description is as above. The following applies: HEK293; Table 3; assay 1; 1 μM compound at 5 h of treatment.
Assay [4] addresses T1, BRD9. The experiment in a line: BRD9 degradation, HiBiT-BRD9 KI HEK293 (LgBiT) cells, NanoGlo Lytic Endpoint assay (Assay Protocol 1). Conditions: Table 3; assay 1; 5 h of treatment.
The mark [5] stands for this setting: Table 4, BRD9 degradation, determined according to Assay Protocol 1, read-out: Dmax^1.
Setting [6] is: Table 5, assay protocol 1, read-out: BRD9 Dmax (%).
[7] abbreviates: Table 4, BRD9 degradation, determined according to Assay Protocol 1, read-out: DC50^1.
[8] abbreviates: Table 5, assay protocol 1, read-out: BRD9 DC50.
Where [9] appears, read: Table 2, BRD9 degradation, Assay Protocol 1, 1 μM compound at 6 h of treatment, read-out: Assay 1 Dmax.
Where [10] appears, read: Table 3, assay 1, 1 μM compound at 5 h of treatment, read-out: BRD9 Dmax (%).
[11] abbreviates: Table 2, BRD9 degradation, Assay Protocol 1, 6 h of treatment, read-out: Assay 1 DC50.

The structures appear in SMILES notation. Like-named read-outs stand apart in the source and are kept apart here.

Broadly, the Dmax is the greatest extent of degradation seen. As a reminder, the DC50 is the concentration at which degradation of the target reaches its halfway point.

As for `COc1cc(-c2cn(C)c(=O)c(C)c2C)cc(OC)c1CN1CC2CC1CN2C(=O)/C(C#N)=C/C(C)(C)C` (mixture of isomers) [BRD9b], the Dmax on BRD9 [1] (setting [5]) was above 70%; at BRD9 [1] (setting [6]) it was 70 to 75%; on BRD4 [2] it was above 75%. Further, the values for the DC50 on BRD9 [1] (setting [7]), on BRD9 [1] (setting [8]) and at BRD4 [2] were below 25 nM, 10 to 25 nM and 25 to 1000 nM, respectively.

With `COc1cc(-c2cn(C)c(=O)c(C)c2C)cc(OC)c1CN1CC2CC1CN2C(=O)/C(C#N)=C/c1nccs1` (mixture of isomers) [BRD9i, (E/Z)-2-(5-(2,6-dimethoxy-4-(1,4,5-trimethyl-6-oxo-1,6-dihydropyridin-3-yl)benzyl)-2,5-diazabicyclo[2.2.1]heptane-2-carbonyl)-3-(thiazol-2-yl)acrylonitrile], the maximal degradation (Dmax) on BRD9 [1] (setting [5]) was 50 to 70%; at BRD9 [1] (setting [6]), 40 to 70%; on BRD4 [2], 40 to 70%. Besides, the 50% degradation concentration (DC50) at BRD9 [1] (setting [7]) is 25 to 200 nM; at BRD9 [1] (setting [8]), 25 to 1000 nM; at BRD4 [2] it was above 1000 nM.

For `COc1cc(-c2cn(C)c(=O)c(C)c2C)cc(OC)c1CN1C2CC1CN(C(=O)/C(C#N)=C/c1cccc(Br)n1)C2` (mixture of isomers) [BRD9o, (E/Z)-3-(6-bromopyridin-2-yl)-2-(6-(2,6-dimethoxy-4-(1,4,5-trimethyl-6-oxo-1,6-dihydropyridin-3-yl)benzyl)-3,6-diazabicyclo[3.1.1]heptane-3-carbonyl)acrylonitrile], the values for the maximal degradation (Dmax) on BRD9 [1] (setting [5]), at BRD9 [1] (setting [6]) and at BRD4 [2] were above 70%, above 75% and 25 to 40%, respectively. For the same compound, the DC50 was 10 to 25 nM at BRD9 [1] (setting [8]) and above 1000 nM at BRD4 [2].

For the compound `COc1cc(-c2cn(C)c(=O)c(C)c2C)cc(OC)c1CN1CCN(Cc2cccc3c2CCN(C(=O)/C(C#N)=C/c2nccs2)C3C)CC1` (mixture of isomers) [Compound A4, (E/Z)-2-(5-((4-(2,6-dimethoxy-4-(1,4,5-trimethyl-6-oxo-1,6-dihydropyridin-3-yl)benzyl)piperazin-1-yl)methyl)-1-methyl-1,2,3,4-tetrahydroisoquinoline-2-carbonyl)-3-(thiazol-2-yl)acrylonitrile], on BRD4 [3], the Dmax was below 25%. For the same compound, the Dmax at 1 µM on BRD9 [1] (setting [9]) and on BRD9 [1] (setting [10]) was 70 to 75% each time. In addition, the DC50 on BRD9 [1] (setting [11]) and on BRD9 [4] was below 1.25 nM throughout.

For the compound `COc1cc(-c2cn(C)c(=O)c3cnccc23)cc(OC)c1CN1CCN(Cc2cccc3c2CCN(C(=O)/C(C#N)=C\c2ncc(C)s2)C3C)CC1` (mixture of isomers) [Compound A10, (E/Z)-2-(5-((4-(2,6-dimethoxy-4-(2-methyl-1-oxo-1,2-dihydro-2,7-naphthyridin-4-yl)benzyl)piperazin-1-yl)methyl)-1-methyl-1,2,3,4-tetrahydroisoquinoline-2-carbonyl)-3-(5-methylthiazol-2-yl)acrylonitrile], the figures for the Dmax on BRD4 [3] and at BRD9 [1] (setting [10]) were below 25% and 40 to 70%, respectively. In addition, the greatest degradation seen (Dmax) at 1 µM on BRD9 [1] (setting [9]) lay in the range of 40 to 70%. The DC50 at BRD9 [1] (setting [11]) and on BRD9 [4] was below 1.25 nM in each case.

With `COc1cc(-c2cn(C)c(=O)c(C)c2C)cc(OC)c1CN1CCN(Cc2cccc3c2CCN(C(=O)/C(C#N)=C/c2cccc(Br)n2)C3C)CC1` (mixture of isomers) [Compound A16, (E/Z)-3-(6-bromopyridin-2-yl)-2-(5-((4-(2,6-dimethoxy-4-(1,4,5-trimethyl-6-oxo-1,6-dihydropyridin-3-yl)benzyl)piperazin-1-yl)methyl)-1-methyl-1,2,3,4-tetrahydroisoquinoline-2-carbonyl) acrylonitrile], the maximal degradation (Dmax) at BRD4 [3] is below 25%. Also, the Dmax at 1 µM on BRD9 [1] (setting [9]) and on BRD9 [1] (setting [10]) was 70 to 75% each time. The 50% degradation concentration (DC50) on BRD9 [1] (setting [11]) and at BRD9 [4] was 1.25 to 10 nM in each case.

At BRD4 [3], `COc1cc(-c2cn(C)c(=O)c3cnccc23)cc(OC)c1CN(C)Cc1cccc2c1CCN(C(=O)/C(C#N)=C/c1cccc(Br)n1)C2C` (mixture of isomers) [Compound A50] had a maximal degradation (Dmax) below 25%. The maximal degradation (Dmax) at 1 µM at BRD9 [1] (setting [9]) and on BRD9 [1] (setting [10]) was above 75% throughout. Besides, the DC50 at BRD9 [1] (setting [11]) and on BRD9 [4] was below 1.25 nM throughout.

As for `COc1cc(-c2cn(C)c(=O)c(C)c2C)cc(OC)c1CN1CCN(C(=O)/C(C#N)=C/C(C)(C)C)CC1` [BRD9a, (E/Z)-2-(4-(2,6-dimethoxy-4-(1,4,5-trimethyl-6-oxo-1,6-dihydropyridin-3-yl)benzyl)piperazine-1-carbonyl)-4,4-dimethylpent-2-enenitrile], the figures for the maximal degradation (Dmax) on BRD9 [1] (setting [5]), on BRD9 [1] (setting [6]) and on BRD4 [2] were 50 to 70%, 40 to 70% and above 75%, respectively. The half-maximal degradation concentration (DC50) is above 200 nM on BRD9 [1] (setting [7]), 25 to 1000 nM at BRD9 [1] (setting [8]) and 25 to 1000 nM on BRD4 [2].

`COc1cc(-c2cn(C)c(=O)c(C)c2C)cc(OC)c1CN(C)C(=O)/C(C#N)=C/C(C)(C)C` [BRD9ac, (E/Z)-2-cyano-N-(2,6-dimethoxy-4-(1,4,5-trimethyl-6-oxo-1,6-dihydropyridin-3-yl)benzyl)-N,4,4-trimethylpent-2-enamide]: the Dmax on BRD9 [1] (setting [5]) was 30 to 50%; on BRD4 [2], 25 to 40%. In addition, the results for the DC50 on BRD9 [1] (setting [7]) and on BRD4 [2] were 25 to 200 nM and above 1000 nM, respectively.

Consider `COc1cc(-c2cn(C)c(=O)c(C)c2C)cc(OC)c1CN1CCCN(C(=O)/C(C#N)=C/C(C)(C)C)CC1` [BRD9c, (E/Z)-2-(4-(2,6-dimethoxy-4-(1,4,5-trimethyl-6-oxo-1,6-dihydropyridin-3-yl)benzyl)-1,4-diazepane-1-carbonyl)-4,4-dimethylpent-2-enenitrile], for which the greatest degradation seen (Dmax) is above 70% at BRD9 [1] (setting [5]) and above 75% on BRD4 [2]. Further, the half-maximal degradation concentration (DC50) is below 25 nM on BRD9 [1] (setting [7]) and 25 to 1000 nM on BRD4 [2].

`COc1cc(-c2cn(C)c(=O)c(C)c2C)cc(OC)c1CN(C)C1CCN(C(=O)/C(C#N)=C/C(C)(C)C)CC1` [BRD9d, (E/Z)-2-(4-((2,6-dimethoxy-4-(1,4,5-trimethyl-6-oxo-1,6-dihydropyridin-3-yl)benzyl)(methyl)amino)piperidine-1-carbonyl)-4,4-dimethylpent-2-enenitrile]: the maximal degradation (Dmax) at BRD9 [1] (setting [5]) is above 70%; at BRD9 [1] (setting [6]) it was 70 to 75%; on BRD4 [2], below 25%. Besides, the DC50 on BRD9 [1] (setting [7]) was 25 to 200 nM; on BRD9 [1] (setting [8]) it was 10 to 25 nM; on BRD4 [2], above 1000 nM.

As to `COc1cc(-c2cn(C)c(=O)c(C)c2C)cc(OC)c1CN1CCN(C(=O)/C(C#N)=C/C(C)(C)C)C2(CC2)C1` [BRD9e, (E/Z)-2-(7-(2,6-dimethoxy-4-(1,4,5-trimethyl-6-oxo-1,6-dihydropyridin-3-yl)benzyl)-4,7-diazaspiro[2,5]octane-4-carbonyl)-4,4-dimethylpent-2-enenitrile], on BRD9 [1] (setting [7]), the DC50 is above 200 nM. For the same compound, on BRD4 [2], the maximal degradation (Dmax) is above 75% and the DC50 lay within 25 to 1000 nM.

As to `COc1cc(-c2cn(C)c(=O)c(C)c2C)cc(OC)c1CN1CCN(C(=O)/C(C#N)=C/c2cccc(Br)n2)CC1` [BRD9h, (E/Z)-3-(6-bromopyridin-2-yl)-2-(4-(2,6-dimethoxy-4-(1,4,5-trimethyl-6-oxo-1,6-dihydropyridin-3-yl)benzyl)piperazine-1-carbonyl)acrylonitrile], the maximal degradation (Dmax) is above 70% at BRD9 [1] (setting [5]), above 75% at BRD9 [1] (setting [6]) and 40 to 70% on BRD4 [2]. In addition, the DC50 on BRD9 [1] (setting [7]) is below 25 nM; at BRD9 [1] (setting [8]) it was below 1.25 nM; at BRD4 [2], 25 to 1000 nM.
